Columns and labels:
[1] = system: C57BL/6J mouse models of anemia induced by cisplatin; experiment: Improvement of anemia induced by cisplatin administration; format: in vivo; conditions: cisplatin-induced anemia mice, po, 20 mg·kg^-1
Description: 5. Pharmacodynamic assay
The experimental mice (SPF, […], male) were obtained from SPF (Beijing) Biotechnology Co., Ltd (permit number: SCXK (Jing) 2019-0010). All animal related experiments were conducted under a China Pharmaceutical University (the certification of using the housing facility of laboratory animals: SYXK (Su) 2018 -0019) IACUC approved protocol in compliance with the guide for the care and use of laboratory animals (number: 202013705). […]
Representative compounds and Roxadustat were formulated in normal saline solution. […]
China Pharmaceutical University (ADVIA 2120 hematology system). […]
5.3 Improvement of anemia induced by cisplatin administration
C57BL/6J mice were treated with cisplatin ( po, 7 mg·kg-1) on days 0, 7, 14, and 28 of the experiment. On the 29th day, the animals were randomized into sham, control, and treated groups (n=5). […]
treatment anemia caused by cisplatin. The mice were treated with the compounds every alternate day for 30 days. the test sample is obtained via orbital venous plexus. The hemoglobin of samples was analyzed in the center for new drug safety evaluation and research at China Pharmaceutical University (ADVIA 2120 hematology system).

[2] = target: T1, human prolyl hydroxylase 2 (PHD2) (Homo sapiens, UniProt Q9GZT9); experiment: Fluorescence polarization (FP) competition assay of PHD2; conditions: purified compounds, 20 nM PHD2 (181-426), 30 nM probe, Cheng-Prusoff, mean±SD, read-out: Ki, binding affinity for PHD2
T1 construct: (181-426); made in house
T1 sequence (Q9GZT9 181-426): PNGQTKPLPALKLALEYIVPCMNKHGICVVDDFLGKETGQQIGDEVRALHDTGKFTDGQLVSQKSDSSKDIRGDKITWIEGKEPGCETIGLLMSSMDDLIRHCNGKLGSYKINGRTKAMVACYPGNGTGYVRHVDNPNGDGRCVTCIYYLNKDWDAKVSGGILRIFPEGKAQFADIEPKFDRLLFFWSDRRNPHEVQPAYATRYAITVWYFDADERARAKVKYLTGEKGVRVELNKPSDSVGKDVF
Description: 2.1 Fluorescence polarization (FP) competition assay of PHD2 [4]
FP assays were performed using a SPARK Multi-Mode Microplate Reader (Tecan) with excitation and emission filters appropriate for the fluorophore used in the binding experiment. Fluorescence polarization experiments were performed in 384-well, flat bottom, black assay plates (#3575, Corning) in a final volume of 60 µL. The final assay buffer contained: 30 nM fluorescence Probe, 20 nM PHD2 (181-426), 10 mM HEPES, pH 7.4, 150 mM NaCl, 0.05% Tween-20, and at the 1% DMSO (except for DMSO tolerance experiments, in which different DMSO concentrations were used as indicated). All plates measured in fluorescence polarization assays were incubated for a minimum of 30 min at RT. Fluorescence polarization was measured from the top of the well with a Tecan SPARK plate reader with polarized filters and optical modules for fluorescein (λex = 485 nm ± 25 nm, λem = 535 nm ± 25 nm). The standard error of the mean (SEM) values, were calculated by dividing the sample standard deviation by the square root of the sample size and are recorded as ± values for IC 50. Dose-dependent experiments were performed in th e same manner using at least 10 concentrations of the test compounds in 3 -fold serial dilutions from 100 µM. For each assay, negative controls (equivalent to 0% displacement) contained the fluorescent ligand, PHD2 (181 -426), and 20 µL FP buffer; blank cont rols contained only the fluorescent ligand and 40 µL buffer.
The reaction mixtures were incubated at RT for 60 min, then total fluorescence and fluorescence polarization measurements wer e taken. The percentage inhibition was calculated using Equation 1, where mPfree is the signal for the free probe (blank control) and mPbound is the signal for the bound probe (negative control).
IC50s were determined for duplicate measurements by non-linear least-squares analysis using GraphPad Prism 8.0.
The Ki values of the inhibitors were calculated using the Cheng-Prusoff equation.[5] Cheng-Prusoff equation: Ki = IC50 / (1 + [L]/Kd)
The Kd value was determined using a constant concentration of probe and titrating with PHD2 protein at increasing concentrations. [L] represents the concentration of the […] used in the FP assay. […]

| SMILES | Improvement of anemia (%) [1] [%] | Ki [2] [nM] | melting point [°C] |
| --- | --- | --- | --- |
| Cc1nc(C(=O)NCC(=O)O)c(O)c2ccc(Oc3ccccc3)cc12 [Roxadustat, reference compound] | 48.5 |  |  |
| O=C(N/N=C/c1cccc(O)c1O)c1cnc(-n2cccn2)[nH]c1=O [compound 1] |  | 113 ± 5 | > 300 |
| O=C(N/N=C/c1cccc(O)c1O)c1cnc(-c2cccnn2)[nH]c1=O [compound 2] |  | 68 ± 6 |  |
| O=C(N/N=C/c1cccc(O)c1O)c1cnc(-c2ccccn2)[nH]c1=O [compound 3] |  | 48 ± 4 | > 300 |
| O=C(N/N=C/c1cccc(O)c1O)c1cnc(-c2ncccn2)[nH]c1=O [compound 4] |  | 500 ± 16 | > 300 |
| O=C(N/N=C/c1cccc(O)c1O)c1cnc(-n2cncn2)[nH]c1=O [compound 5] |  | 548 ± 32 | > 300 |
| O=C(N/N=C/c1ccc(O)c(O)c1)c1cnc(-c2ccccn2)[nH]c1=O [compound 6] |  | 2620 ± 103 | 294.7 to 295.2 |
| O=C(N/N=C/c1cc(O)c(O)c(O)c1)c1cnc(-c2ccccn2)[nH]c1=O [compound 7] |  | 72 ± 5 | > 300 |
| O=C(N/N=C/c1ccccc1O)c1cnc(-c2ccccn2)[nH]c1=O [compound 8] |  | 639 ± 37 | > 300 |
| O=C(N/N=C/c1cc(O)ccc1O)c1cnc(-c2ccccn2)[nH]c1=O [compound 9] |  | 483 ± 9 | > 300 |
| O=C(N/N=C/c1ccc(O)c(O)c1O)c1cnc(-c2ccccn2)[nH]c1=O [compound 10] |  | 130 ± 4 | > 300 |
| O=C(O)c1ccccc1/C=N/NC(=O)c1cnc(-c2cccnn2)[nH]c1=O [compound 11] |  | 119 ± 9 |  |
| O=C(O)c1ccc(/C=N/NC(=O)c2cnc(-c3ccccn3)[nH]c2=O)cc1 [compound 12] |  | 103 ± 4 | > 300 |
| O=C(O)c1ccc(/C=N/NC(=O)c2cnc(-c3ncccn3)[nH]c2=O)cc1 [compound 13] |  | 1050 ± 129 | > 300 |
| O=C(O)c1cc(/C=N/NC(=O)c2cnc(-c3cccnn3)[nH]c2=O)ccc1O [compound 14] |  | 155 ± 18 | > 300 |
| O=C(O)c1cc(/C=N/NC(=O)c2cnc(-c3ccccn3)[nH]c2=O)ccc1O [compound 15] |  | 200 ± 8 | > 300 |
| O=C(N/N=C/c1cccc(Cl)c1O)c1cnc(-c2cccnn2)[nH]c1=O [compound 16] |  | 394 ± 17 | > 300 |
| O=C(N/N=C/c1cccc(O)c1Cl)c1cnc(-c2ccccn2)[nH]c1=O [compound 18] |  | 116 ± 5 | > 300 |
